3 compounds from patent US12410152B2, “Oxazole and thioazole-type cullin ring ubiquitin ligase compounds and uses thereof” (Proxygen GmbH, priority 2019, dated 2025) can be followed below.

Series [1] relates to T1, cyclin K (CCNK) (Homo sapiens).
T1 construct: endogenous in cells; host or cells: KBM7 cells (WT and UBE2M/CUL4B/UBE2G1 mutant clones)
Briefly: CCNK destabilization/degradation (expression proteomics and Western blot). The note with it: wild-type KBM7 cells. In kind it is cell-based. As for the experimental part:
(§1) The hypomorphic phenotype of the mutated UBE2M allele in KBM7 cells (KBM7 UBE2M^mut cells) was assessed. In this regard, CRISPR/Cas9-induced mutation of UBE2M inactivated CRL activity including CRL4^CRBN and CRL2^VHL. […] Additionally, CCNK destabilization by all three compounds was validated via time-resolved immunoblots wherein CCNK degradation was evident after two hours (FIG. 19c).
(§2) Subsequently, a total of 53 structurally related analogue compounds in dose-ranging viability assays in KBM7 wildtype- and UBE2M^mut cells was tested to develop a structure-activity relationship for the assayed compounds. This informed on sites amenable for derivatization of analogs (FIG. 20a), and also to the identification of structurally similar small molecules with no measurable activity that are thus suited negative controls. […] CRL activity-dependent degradation of CCNK could be rescued by pharmacologic NAE inhibition and by blocking the ubiquitin activating enzyme UBA1, particularly by pretreating the cells with 1 μM carfilzomib (Selleckchem, S2853), 1 μM MLN4924 (Selleckchem, S7109), 10 μM TAK-243 (MedChemExpress, HY-100487) or 1 μM THZ531 (MedChemExpress HY-103618) (FIG. 19d). Furthermore, treatment with the selective covalent CDK12/13 inhibitor THZ531, which binds to the ATP binding pocket of CDK12/13, rescued CCNK degradation (FIG. 19d) indicating the role of the active site of CDK12/13 for CRL activity-dependent CCNK degradation by the identified compounds (FIG. 19d).
(§3) PBS-washed cell pellets were lysed in 50 mM Tris pH 7.9, 8M Urea and 1% CHAPS and incubated with shaking at 4° C. for at least 30 min. 20 μg of supernatants were run and transferred for detection. Antibodies used: CUL1 (Santa Cruz Biotechnology, sc-1276), CUL2 (Sigma-Aldrich, SAB2501565-100), CUL3 (Cell Signaling Technology, 2759), CUL4A (Cell Signaling Technology, 2699S), CUL4B (Proteintech, 12916-1-AP), CUL5 (Santa Cruz Biotechnology, sc-373822), UBE2M (Santa Cruz Biotechnology, sc-390064), DDB1 (Cell Signaling Technology, 5428S), CCNK (Bethyl, A301-939A), CDK12 (Cell Signaling Technology, 11973S), CDK13 (Bethyl, A301-458A), RBM39 (1:500, Santa Cruz Biotechnology sc-376531), V5 (Cell Signaling Technology, 13202), Ubiquityl-Histone H2A (K119) (Cell Signaling, 8240-20). ACTIN (Sigma-Aldrich, A5441), VINCUL1N (Santa Cruz Biotechnology, sc-25336). Secondary antibodies anti-mouse/rabbit/goat (Jackson ImmunoResearch 115-035-003, 111-035-003 and 705-035-003).
(§4) Comparison of overall proteome-wide changes in KBM7 cells treated with IC020772.1 (2.5 μM), IC021313.2 (7 μM) or T6938051 (3.5 μM) for 5 h and 12h, using quantitative proteomics based on isobaric tagging.
For orientation: Immunoblotting shows a protein as a band on a membrane.

In the next series the target is T2, cyclin K (CCNK) (Homo sapiens, UniProt Q16531+Q9NYV4).
T2 construct: endogenous in cells; host or cells: KBM7 cells (WT and UBE2M/CUL4B/UBE2G1 mutant clones)
T2 sequence (O75909 whole entry partner): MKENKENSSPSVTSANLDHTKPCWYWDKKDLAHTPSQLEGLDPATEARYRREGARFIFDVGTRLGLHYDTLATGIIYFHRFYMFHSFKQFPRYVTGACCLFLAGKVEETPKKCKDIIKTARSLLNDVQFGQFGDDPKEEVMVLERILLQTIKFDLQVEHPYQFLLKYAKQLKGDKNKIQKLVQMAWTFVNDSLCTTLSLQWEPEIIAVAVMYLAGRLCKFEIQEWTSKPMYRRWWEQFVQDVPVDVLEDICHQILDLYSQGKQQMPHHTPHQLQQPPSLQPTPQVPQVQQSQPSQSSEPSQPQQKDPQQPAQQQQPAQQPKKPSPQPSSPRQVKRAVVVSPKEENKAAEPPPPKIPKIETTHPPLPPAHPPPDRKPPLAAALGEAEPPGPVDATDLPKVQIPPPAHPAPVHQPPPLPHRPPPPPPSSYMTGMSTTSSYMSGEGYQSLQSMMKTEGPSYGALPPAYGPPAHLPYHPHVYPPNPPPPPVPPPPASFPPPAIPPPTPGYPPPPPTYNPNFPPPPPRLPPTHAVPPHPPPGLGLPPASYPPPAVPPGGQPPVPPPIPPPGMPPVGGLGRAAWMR
T2 sequence (Q9NYV4 whole entry): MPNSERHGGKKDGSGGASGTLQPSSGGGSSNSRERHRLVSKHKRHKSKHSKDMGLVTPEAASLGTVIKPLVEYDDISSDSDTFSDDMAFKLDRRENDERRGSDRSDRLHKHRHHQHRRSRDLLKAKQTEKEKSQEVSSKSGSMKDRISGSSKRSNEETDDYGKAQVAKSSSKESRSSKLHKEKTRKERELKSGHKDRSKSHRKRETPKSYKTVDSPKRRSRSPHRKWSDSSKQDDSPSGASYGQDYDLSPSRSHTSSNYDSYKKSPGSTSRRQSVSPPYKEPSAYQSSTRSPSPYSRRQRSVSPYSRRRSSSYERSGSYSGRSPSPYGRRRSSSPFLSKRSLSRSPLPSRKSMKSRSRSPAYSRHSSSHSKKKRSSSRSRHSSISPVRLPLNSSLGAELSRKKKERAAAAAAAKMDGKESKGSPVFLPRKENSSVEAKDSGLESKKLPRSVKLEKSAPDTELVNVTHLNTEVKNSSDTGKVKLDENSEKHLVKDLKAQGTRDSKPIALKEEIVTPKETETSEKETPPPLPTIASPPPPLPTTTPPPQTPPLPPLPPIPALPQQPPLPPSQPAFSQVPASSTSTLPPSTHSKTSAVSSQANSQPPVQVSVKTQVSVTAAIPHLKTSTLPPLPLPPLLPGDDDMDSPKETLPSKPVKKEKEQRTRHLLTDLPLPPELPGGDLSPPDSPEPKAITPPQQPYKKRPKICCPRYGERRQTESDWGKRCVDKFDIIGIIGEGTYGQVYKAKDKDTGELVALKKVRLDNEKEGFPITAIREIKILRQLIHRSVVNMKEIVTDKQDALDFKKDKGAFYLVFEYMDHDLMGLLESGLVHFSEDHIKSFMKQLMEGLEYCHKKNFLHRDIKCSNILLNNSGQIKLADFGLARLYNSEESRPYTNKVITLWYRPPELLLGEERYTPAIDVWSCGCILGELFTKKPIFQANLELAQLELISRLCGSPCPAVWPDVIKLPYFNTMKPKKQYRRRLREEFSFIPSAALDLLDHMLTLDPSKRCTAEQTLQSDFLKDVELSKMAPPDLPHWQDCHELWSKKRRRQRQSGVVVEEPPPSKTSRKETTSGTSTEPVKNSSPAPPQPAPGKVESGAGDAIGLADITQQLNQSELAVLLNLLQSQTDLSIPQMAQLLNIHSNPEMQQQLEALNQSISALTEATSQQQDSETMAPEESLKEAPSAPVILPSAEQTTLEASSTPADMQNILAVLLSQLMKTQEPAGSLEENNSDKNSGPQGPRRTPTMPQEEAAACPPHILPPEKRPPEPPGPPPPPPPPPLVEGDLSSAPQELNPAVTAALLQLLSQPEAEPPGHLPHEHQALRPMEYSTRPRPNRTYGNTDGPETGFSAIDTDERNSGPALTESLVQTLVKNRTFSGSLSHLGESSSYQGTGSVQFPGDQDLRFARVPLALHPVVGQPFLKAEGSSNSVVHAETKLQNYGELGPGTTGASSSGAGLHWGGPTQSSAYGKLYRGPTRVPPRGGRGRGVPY
T2 sequence (Q16531 2-1140 limits assumed): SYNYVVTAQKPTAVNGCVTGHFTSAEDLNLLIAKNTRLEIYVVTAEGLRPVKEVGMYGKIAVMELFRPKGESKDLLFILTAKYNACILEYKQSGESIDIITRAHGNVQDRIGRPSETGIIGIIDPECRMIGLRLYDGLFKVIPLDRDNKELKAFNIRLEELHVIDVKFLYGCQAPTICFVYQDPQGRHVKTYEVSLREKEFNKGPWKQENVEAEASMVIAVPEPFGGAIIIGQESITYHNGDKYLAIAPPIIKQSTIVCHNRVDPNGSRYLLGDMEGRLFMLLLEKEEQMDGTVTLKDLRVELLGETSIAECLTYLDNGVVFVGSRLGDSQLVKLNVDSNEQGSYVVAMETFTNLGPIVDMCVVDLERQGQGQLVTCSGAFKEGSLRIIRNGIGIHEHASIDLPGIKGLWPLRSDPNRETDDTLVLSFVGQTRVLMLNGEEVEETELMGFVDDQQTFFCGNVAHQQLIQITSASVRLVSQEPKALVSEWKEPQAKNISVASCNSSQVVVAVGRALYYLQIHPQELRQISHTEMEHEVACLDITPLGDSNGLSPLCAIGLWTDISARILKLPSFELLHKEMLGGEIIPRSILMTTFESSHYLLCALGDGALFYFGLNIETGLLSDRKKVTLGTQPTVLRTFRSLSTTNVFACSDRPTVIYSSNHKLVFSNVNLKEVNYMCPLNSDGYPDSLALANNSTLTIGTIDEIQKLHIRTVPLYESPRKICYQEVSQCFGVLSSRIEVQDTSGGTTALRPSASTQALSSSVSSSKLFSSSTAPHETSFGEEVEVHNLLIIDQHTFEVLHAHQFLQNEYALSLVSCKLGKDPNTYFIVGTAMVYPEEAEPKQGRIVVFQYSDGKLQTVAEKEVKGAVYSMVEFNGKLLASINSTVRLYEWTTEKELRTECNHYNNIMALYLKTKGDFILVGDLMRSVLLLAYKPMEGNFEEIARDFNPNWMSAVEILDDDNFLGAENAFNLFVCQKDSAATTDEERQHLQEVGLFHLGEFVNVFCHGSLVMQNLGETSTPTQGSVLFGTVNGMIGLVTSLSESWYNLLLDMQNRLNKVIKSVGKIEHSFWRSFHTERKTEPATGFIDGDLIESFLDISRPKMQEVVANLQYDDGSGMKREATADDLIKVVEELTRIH
T2 sequence (Q13620 whole entry partner): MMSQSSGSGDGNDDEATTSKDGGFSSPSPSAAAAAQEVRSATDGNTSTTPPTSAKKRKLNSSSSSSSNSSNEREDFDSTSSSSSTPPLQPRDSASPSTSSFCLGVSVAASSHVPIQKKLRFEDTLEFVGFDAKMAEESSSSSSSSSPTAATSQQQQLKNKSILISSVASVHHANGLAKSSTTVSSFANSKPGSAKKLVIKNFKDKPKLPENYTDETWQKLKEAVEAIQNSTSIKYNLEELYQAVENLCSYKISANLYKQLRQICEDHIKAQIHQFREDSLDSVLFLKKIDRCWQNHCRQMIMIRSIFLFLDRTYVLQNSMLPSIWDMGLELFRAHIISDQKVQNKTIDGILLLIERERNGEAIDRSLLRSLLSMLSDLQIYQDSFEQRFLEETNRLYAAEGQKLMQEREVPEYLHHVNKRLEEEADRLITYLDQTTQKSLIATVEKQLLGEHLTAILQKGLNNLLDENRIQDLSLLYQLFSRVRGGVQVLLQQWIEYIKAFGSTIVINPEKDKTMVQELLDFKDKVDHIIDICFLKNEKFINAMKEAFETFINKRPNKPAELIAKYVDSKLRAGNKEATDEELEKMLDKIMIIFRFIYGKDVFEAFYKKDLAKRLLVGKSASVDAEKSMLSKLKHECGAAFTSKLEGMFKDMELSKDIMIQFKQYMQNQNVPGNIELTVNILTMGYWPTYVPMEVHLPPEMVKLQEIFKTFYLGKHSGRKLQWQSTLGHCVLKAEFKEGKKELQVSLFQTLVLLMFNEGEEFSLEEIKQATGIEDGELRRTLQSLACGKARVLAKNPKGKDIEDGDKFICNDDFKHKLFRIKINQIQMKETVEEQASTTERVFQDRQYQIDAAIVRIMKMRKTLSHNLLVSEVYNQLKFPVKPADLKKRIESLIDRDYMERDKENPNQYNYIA
T2 sequence (P62877 whole entry partner): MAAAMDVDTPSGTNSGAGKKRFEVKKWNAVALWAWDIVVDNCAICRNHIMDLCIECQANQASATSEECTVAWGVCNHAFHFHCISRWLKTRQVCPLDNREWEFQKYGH
The series is described as above. The note with it: for effect on CCNK upon inactivation of DDB1, UBE2G1 and UBE2M: CRISPR-inactivated KBM7 cells. In kind it is cell-based. As for the experimental part: as §1, §2, §3, §4

A further series concerns UBE2M mutant KBM7 cells. Briefly: cells. The class given is cell-based. The method, then: KBM7 cells with the specified genetic backgrounds were grown in IMDM supplemented with 10% FBS and 1% penicillin/streptomycin (pen/strep). AsPC1, HCT116, NCI-H446 and 293T cells were grown in DMEM 10% FBS and 1% pen/strep. MV4; 11, Jurkat and Be (2) C cells were grown in RPMI 10% FBS 1% pen/strep. KBM7, AsPC1 and HCT116 cells expressing Cas9 were generated using the plasmid Lenti_Cas9_Blasti (Addgene #52962). The lentiviral plasmid lentiGuide-Puro (Addgene #52963) was used to express sgRNAs against the genes UBE2M (in KBM7-Cas9, AsPC1-Cas9 and HCT116-Cas9 cells), UBE2G1 (in KBM7-Cas9 cells) and […] (in KBM7-Cas9 cells). The lentiviral plasmid lentiGuide-Puro-IRES-mCherry (modified from Addgene #52963) was used to express sgRNAs against CUL4A (in KBM7-Cas9 cells). The lentiviral plasmid pLenti-PGK-Hygro-DEST-UBE2M was generated by Gateway cloning (empty destination vector Addgene #19066), and used to generate UBE2M^resc KBM7 cells. […]
Following this observation, it was rationalized that novel small molecule degraders can be identified in an unbiased manner, simply by searching for compounds that lose activity in the absence of UBE2M. 2000 small molecules, mostly of unknown function/target, were tested for their antiproliferative effects in human leukemia cells (KBM7). These cells were either transduced with a control sgRNA (KBM7WT), or with an sgRNA targeting UBE2M, leading to a hypomorph (deletion of six amino acids) with a functional impairment (UBE2Mmut).
Finally, a total of structurally similar analogs was tested to unravel structure-activity relationship of the identified molecules. To that end, their anti-cancer activity was assayed in WT cells, as well as KBM7 cells deficient in genes identified in the genome-wide CRISPR screens (UBE2M, CUL4B, UBE2G1). Moreover, the compounds were also tested in AsPC1 pancreatic cancer cells (WT or UBE2Mmut), MV4; 11 and Jurkat leukemia cells, Be (2) C neuroblastoma cells, and NCI-H446 lung cancer cells (Table 3 at the end of this document)
KBM7^WT, mutant KBM7 clones (UBE2M^mut, UBE2M^resc, UBE2G1^mut CUL4A^mut, CUL4B^mut), and 3-day doxycycline pretreated KBM7^iCas9_sgDDB1 cells were seeded at a cell density of 50,000 cells/mL in 96-well plates with DMSO or drug, in triplicates. Drugs used: IC020772.1/IC020772.1X, IC021313.2/IC021313.2X, T6938051/T6938051X or THZ531. Cells were treated for 3 days, after which cell viability was assessed according to manufacturer's protocol (CellTiter Glo, Promega G7570). Survival curves and EC50 values were calculated by best-fit analysis of the log 10 drug concentration to fold change of drug-treated cells over DMSO-treated cells. All survival assays included technical triplicates per sample, per experiment.

The test system of a further series is CDK12/13. Briefly: CDK12/13 destabilization (expression proteomics and Western blot). In kind it is cell-based, human. The note with it: KBM7 cells. As for the experimental part:
as §1, §3, §4

T1 sequence (O75909 whole entry partner): as the sequence (O75909 whole entry partner) above
T1 sequence (Q9NYV4 whole entry, further chain): as the sequence (Q9NYV4 whole entry) above
T1 sequence (Q16531 2-1140 limits assumed, further chain): as the sequence (Q16531 2-1140 limits assumed) above
T1 sequence (Q13620 whole entry partner): as the sequence (Q13620 whole entry partner) above
T1 sequence (P62877 whole entry partner): as the sequence (P62877 whole entry partner) above

As a reminder, the CC50 is the concentration giving 50% cytotoxicity. With `O=C(CSc1nc2ccccc2[nH]1)Nc1ccc(Cl)cn1` [IC021313.2], the CCNK destabilization entry in series [1] was “destabilization of cyclin K (CCNK)”. Further, the “effect on CCNK upon inactivation of DDB1, UBE2G1 and UBE2M” value at cyclin K (CCNK) is given as “abrogated”. Further, the “logFC (IC021313.2/DMSO), CCNK (O75909-3)” value on cyclin K (CCNK) (expression proteomics, drug vs DMSO, Table 4, log2FC < −0.3) is −0.873. In addition, half-maximal cytotoxicity with UBE2M mutant KBM7 cells (CC50) was put at 10.7 µM. Besides, the CDK12/13 destabilization entry in the series on CDK12/13 is “milder CDK12/13 destabilization”.
Turning to `Cc1ccc(C(=O)N2CSCC2C(=O)N=c2[nH]cc(C)s2)o1` (stereo not shown) [Compound T6938051], in series [1], the CCNK destabilization entry is given as “destabilization of cyclin K (CCNK)”. For the same compound, at cyclin K (CCNK), the “effect on CCNK upon inactivation of DDB1, UBE2G1 and UBE2M” value is “abrogated”. This compound also had a CC50 in the series on UBE2M mutant KBM7 cells of 7.04 µM. Also, the CDK12/13 destabilization entry with CDK12/13 is on record as “milder CDK12/13 destabilization”.
The like results for `O=C(CSc1nnc2c(n1)[nH]c1ccccc12)Nc1ccc(Cl)cn1` [IC020772.1] were, in that order, “destabilization of cyclin K (CCNK)”, “abrogated”, 4.15 µM and “milder CDK12/13 destabilization”.
